The nature of data set [1]: Spreading coefficient of liquid film cleavage agent. Type of data set: physicochemical. To be noted: 25° C., RH 65%. An excerpt:
(§1) Definitions of “spreading coefficient to the liquid having surface tension of 50 mN/m” and “water solubility” of the liquid film cleavage agent, as specified in the first aspect and the second aspect, and measuring methods of surface tension (γw) of a liquid film (liquid having surface tension of 50 mN/m), surface tension (γo) of a liquid film cleavage agent, interfacial tension (γwo) between the liquid film and the liquid film cleavage agent, and water solubility of the liquid film cleavage agent are as described in the paragraphs {0015} to {0022} in WO 2016/098796.
(§2) Hereinafter, the present invention will be described more in detail with reference to Examples, but the present invention is not limited thereto. In addition, both terms “part” and “%” in the Examples are based on mass unless otherwise noted. […]
(§3) On the occasion, as a “liquid having surface tension of 50 mN/m,” a solution was used, in which the solution was prepared by adding, to 100 g of deionized water, 3.75 μL of POE sorbitan monolaurate (trade name “RHEODOL Super TW-L120,” manufactured by Kao Corporation) being a nonionic surface active substance by a micropipette (trade name “ACURA 825,” manufactured by Socorex Isba SA), and adjusting the surface tension to 50±1 mN/m. Moreover, the water solubility was measured by adding the agent for every 0.0001 g.

Text in data set [2]: as §1
Hereinafter, the present invention will be described more in detail with reference to Examples, but the present invention is not limited thereto. In addition, both terms “part” and “%” in the Examples are based on mass unless otherwise noted. […] In addition, a sign “-” in the following Tables means that neither an agent shown in a name of an item is used, nor the result has an applicable value in the item, or the like. Moreover, a leftward arrow “←” means that the content is the same as described in an adjacent column indicated by the arrow.
as §3

Data set [3] can be described thus: Surface tension of liquid film cleavage agent. It is filed as physicochemical. To be noted: 25° C., RH 65%.
Data set [4] is described as follows: Viscosity of liquid film cleavage agent. It is filed as physicochemical. As to conditions: 25° C., RH 65%, average of three. The procedure:
First, 40 g of a liquid film cleavage agent is prepared. […] This operation is repeated three times, and an average value is adopted as the viscosity. In addition, when the liquid film cleavage agent is solid, the liquid film cleavage agent is heated to a temperature of a melting point of the liquid film cleavage agent plus 5° C. to induce phase transition into liquid, and the measurement is performed with keeping the temperature conditions.
As a result of measuring viscosity by the method shown in (Method for measuring viscosity of liquid film cleavage agent) described above, the viscosity of the liquid film cleavage agent was 163 cps.

A short description of data set [5]: Interfacial tension of liquid film cleavage agent. Type of data set: physicochemical. To be noted: 25° C., RH 65%.
Text: as §1, §2, §3

Consider POP alkyl ether [POP(15) alkyl ether], for which, in data set [1], the “Spreading coefficient to liquid having surface tension of 50 mN/m” value is listed as 5.4 mN/m. Also, the Water solubility entry in data set [2] is on record as “← g”. The substance further registered a Surface tension in data set [3] of 31.8 mN/m. In addition, the Viscosity in data set [4] came out at 129 cps. In addition, the “Interfacial tension to liquid having surface tension of 50 mN/m” value in data set [5] is on record as 12.8 mN/m.
As to “POP-modified dimethyl silicone [POP(12)-modified dimethyl silicone]”, the Water solubility in data set [2] was 0.025 or less g.
Regarding PPG, the Water solubility in data set [2] was 0.025 or less g.
Still for that read-out and setting: as for epoxy-modified dimethyl silicone, the entry is “← g”.
